This is an account of results in patent US3994910A, “Derivatives of 1,2-diphenyl-3,5-dioxo-4-N-butyl-pyrazolidine and process for making same” (Antonia Gallardo, S.A., priority 1973, dated 1976).

Structures are written as SMILES. “Also recorded” adds a separate entry of the source. Structures can show the parent of a compound that is named as a salt. Where two headings read alike, the source gives them in different places.

For series [1], the system named is humans with reumatic diseases. As to the kind of experiment: Treatment of humans with reumatic diseases / polyarthritics. Type of series: in vivo, human. The source says:
In general, the new therapeutic compounds can be used to treat the same disorders as phenylbutazone. […] These therapeutic compounds have been found effective in treating humans as well as animals.

Series [2] concerns granuloma induced in rats by implantation of cotton balls. Briefly: Granuloma induced in rats by implantation of cotton balls. The format is in vivo, rat. Conditions: for Dry granuloma ± standard error: net weight, (mg) printed in adjoining wet weight head; for Weight of wet granuloma: net weight ± standard error. The source says:
The figures refer to the net weight of granuloma tissue obtained by subtracting the original weight of the cotton ball.

Series [3] relates to carrageenin-induced oedema in the rat's paw. Briefly: Inhibition of carrageenin-induced oedema in rat's paw. The conditions noted are these: for % Inhibition ± standard error (paw oedema): 3 hours after carrageenin; for Volume of paw (ml) ± standard error: measured 3 hours after carrageenin. In general terms: Carrageenan injected into the paw causes an acute inflammation.
Series [4] relates to contortions induced by acetic acid in mice. Briefly: Inhibition of contortions induced by acetic acid injected into the abdominal cavity of the mouse. The format is in vivo.
Series [5] has as its system rat stomach. As to the kind of experiment: Ulcerogenic activity on the stomach. The conditions noted are these: compared with phenylbutazone.
Series [6] relates to rat stomach. The conditions noted are these: in vivo.
For series [7] the following is noted: background knowledge; cited from earlier work.
The nature of another series: in vivo. Conditions: rat, po.
The mark [8] stands for this setting: high doses (200 mg/kg), both products compared.
Setting [9] is: lower dose levels (100 and 50 mg/kg).
Setting [10] is: 25 mg/kg per os 1 h before carrageenin.
Where [11] appears, read: 50 mg/kg per os 1 h before carrageenin.
Where [12] appears, read: 100 mg/kg per os 1 h before carrageenin.
The mark [13] stands for this setting: 200 mg/kg per os 1 h before carrageenin.
Where [14] appears, read: 30 mg/kg per os 1 h before acetic acid injection.
The mark [15] stands for this setting: 100 mg/kg per os 1 h before acetic acid injection.
The mark [16] stands for this setting: 300 mg/kg per os 1 h before acetic acid injection.

For `CCCCC1C(=O)N(c2ccccc2)N(c2ccccc2)C1=O` [LAS 11871, 1,2-diphenyl-3,5-dioxo-4-n-butylpyrazolidine-2-amino-2-thiazoline], in series [1] (200 mg two, or three times per day), the treatment of polyarthritics entry is “successfully treat polyarthritics”. For the same compound, the “treatment of humans with reumatic diseases” value in series [1] (humans) is listed as “effective in the treatment of humans with reumatic diseases”. Moreover, the figures for the “Percentage inhibition Dry granuloma” value in [2] (50 mg/Kg/day per os), in series [2] (100 mg/Kg/day per os) and in [2] (200 mg/Kg/day per os) were 20.00%, 19.90 ± 6.10% and 37.60 ± 2.50%, respectively. Further, the “Percentage inhibition Wet granuloma” value in series [2] (50 mg/Kg/day per os) came to 14.40 ± 1.90%; in [2] (100 mg/Kg/day per os), 18.60 ± 3.70%; in [2] (200 mg/Kg/day per os), 20.50 ± 2.80%. The “Dry granuloma ± standard error” value in [2] (50 mg/Kg/day per os) was 61.82 ± 3.16 mg; in series [2] (100 mg/Kg/day per os) it was 61.95 ± 4.74 mg; in [2] (200 mg/Kg/day per os) it was 48.29 ± 1.98 mg. In addition, the “inhibition of granuloma tissue formation” value in series [2] (setting [8]) is listed as “about the same degree of inhibition of granuloma tissue formation”; in series [2] (setting [9]), “continued to inhibit the granuloma tissue formation”. The “% Inhibition ± standard error (paw oedema)” value in series [3] (setting [10]) amounted to 18.60 ± 6.54%; in [3] (setting [11]), 36.01 ± 7.06%; in [3] (setting [12]), 72.40 ± 4.43%; in series [3] (setting [13]), 84.00 ± 3.97%. Moreover, the “Volume of paw (ml) ± standard error” value in series [3] (setting [10]) amounted to 0.7864 ± 0.0632 mL; in series [3] (setting [11]) it was 0.6182 ± 0.0683 mL; in [3] (setting [12]), 0.2667 ± 0.0428 mL; in [3] (setting [13]), 0.1545 ± 0.0384 mL. Further, the “activity against inflammation compared with phenylbutazone” value is reported as “the more active compound” in series [3] (Table 2, at doses of 50 mg/kg and above); “at least as active as phenylbutazone against inflammation” in series [3] (Table 2, overall). Besides, the “anti-inflammatory activity compared with phenylbutazone” value in series [3] (general statement) was “more active as an analgesic and anti-inflammatory agent than phenylbutazone”. For the same compound, the “No. of contortions ± standard error” value in [4] (setting [14]) is 44.20 ± 6.03; in series [4] (setting [15]) it was 36.90 ± 6.34; in series [4] (setting [16]), 24.10 ± 3.74. Moreover, the entries for the “% inhibition ± standard error (contortions)” value in [4] (setting [15]) and in [4] (setting [16]) were 54.90 ± 7.76% and 70.50 ± 4.60%, respectively. In series [4] (mouse, in vivo), the “analgesic activity compared with phenylbutazone” value was “more potent than phenylbutazone as an analgesic; also recorded: more active as an analgesic and anti-inflammatory agent than phenylbutazone”. In addition, the “ulcerogenic activity / gastric lesions” value in the series with rat stomach [5] was “much less active in this respect than phenylbutazone; also recorded: produces fewer gastric lesions”. In the series with rat stomach [6], the “UG: Intensity of ulceration produced in the rat stomach” value (from here on “UG: Intensity of ulceration produced”) is recorded as “+”. Besides, the “ulcerogenic indices ± standard error” value was 0.59 ± 0.19 with rat stomach [6] (50 mg/kg), 2.43 ± 0.41 in the series on rat stomach [6] (100 mg/kg) and 3.65 ± 0.56 in the series on rat stomach [6] (200 mg/kg).
With `CCCCC1C(=O)N(c2ccccc2)N(c2ccccc2)C1=O` [LAS 6671, 1,2-diphenyl-3,5-dioxo-4-n-butylpyrazolidine-2-amino-4-methyl-pyridine], the “UG: Intensity of ulceration produced” value in the series on rat stomach [6] is “+”.
Turning to `CCCCC1C(=O)N(c2ccccc2)N(c2ccccc2)C1=O` [Piperazine salt of Phenylbutazone], the “UG: Intensity of ulceration produced” value in the series with rat stomach [6] was “+”.
Take `CCCCC1C(=O)N(c2ccccc2)N(c2ccccc2)C1=O` [Phenylbutazone, 4-n-butyl-1,2-diphenyl-3,5-pyrazolidinedione]: the figures for the “Percentage inhibition Dry granuloma” value in series [2] (50 mg/Kg/day per os), in series [2] (100 mg/Kg/day per os) and in series [2] (200 mg/Kg/day per os) were 8.50 ± 10.6%, 7.90 ± 6.70% and 35.40 ± 5.50%, respectively. Further, the “Percentage inhibition Wet granuloma” value in [2] (50 mg/Kg/day per os) is given as 4.30 ± 4.10%; in [2] (100 mg/Kg/day per os), 6.50 ± 2.90%; in [2] (200 mg/Kg/day per os), 22.20 ± 2.80%. Also, the results for the “Weight of wet granuloma” value in series [2] (50 mg/Kg/day per os), in series [2] (100 mg/Kg/day per os) and in series [2] (200 mg/Kg/day per os) were 434.75 ± 18.36 mg, 424.50 ± 13.47 mg and 353.40 ± 13.14 mg, respectively. For the same compound, the “Dry granuloma ± standard error” value is given as 83.94 ± 8.22 mg in series [2] (50 mg/Kg/day per os), 71.23 ± 5.18 mg in [2] (100 mg/Kg/day per os) and 49.96 ± 4.25 mg in series [2] (200 mg/Kg/day per os). The “inhibition of granuloma tissue formation” value is “about the same degree of inhibition of granuloma tissue formation” in series [2] (setting [8]) and “did not” in series [2] (setting [9]). The “Volume of paw (ml) ± standard error” value in series [3] (setting [10]) turned out to be 0.6545 ± 0.0545 mL; in series [3] (setting [11]) it was 0.6886 ± 0.0699 mL; in [3] (setting [12]), 0.3139 ± 0.0224 mL; in series [3] (setting [13]), 0.2458 ± 0.0454 mL. Moreover, the “% Inhibition ± standard error (paw oedema)” value is reported as 28.70 ± 7.24% in series [3] (setting [11]), 67.50 ± 2.30% in series [3] (setting [12]) and 74.60 ± 4.70% in [3] (setting [13]). Further, the “% inhibition ± standard error (contortions)” value in series [4] (setting [14]) was 27.70 ± 7.97%; in [4] (setting [15]), 42.10 ± 8.20%. Further, the “No. of contortions ± standard error” value amounted to 59.00 ± 6.51 in series [4] (setting [14]), 47.30 ± 6.70 in [4] (setting [15]) and 42.30 ± 6.75 in series [4] (setting [16]). Moreover, the “most frequent serious toxic effects” value in series [7] is “ulcerogenesis and fluid retention”. Further, the “UG: Intensity of ulceration produced” value with rat stomach [6] is on record as “++”. The figures for the “ulcerogenic indices ± standard error” value with rat stomach [6] (50 mg/kg), in the series on rat stomach [6] (100 mg/kg) and in the series with rat stomach [6] (200 mg/kg) were 0.73 ± 0.21, 4.33 ± 0.47 and 5.00 ± 0.56, respectively. In addition, the “LD50 per os in the rat (only range in parentheses printed)” value in the series on rat (per os, doses in mg/kg, no central value printed) is on record as 530 - 725.
Consider `NC1=NCCS1` [2-amino-thiazoline, 2-amino-2-thiazoline], for which the LD50 in “in vivo” amounted to 430 mg/kg. The mortality in “in vivo” (316 mg/kg) worked out at 20%; in the series “in vivo” (383 mg/kg), 40%; in “in vivo” (464 mg/kg) it was 60%; in “in vivo” (562 mg/kg) it was 70%; in the series “in vivo” (681 mg/kg) it was 90%; in the series “in vivo” (825 mg/kg) it was 90%. Besides, the No. deaths is 2 in the series with rat (316 mg/kg per os); 4 in the series with rat (383 mg/kg per os); 6 with rat (464 mg/kg per os); 7 with rat (562 mg/kg per os); 9 in the series on rat (681 mg/kg per os); 9 in the series on rat (825 mg/kg per os).

As a reminder, the LD50 is the dose at which mortality reaches 50%. The mortality is the share of the test organisms that died.
